Data as given in patent US20200002303A1, “C-GLYCOSIDE COMPOUNDS USEFUL FOR TREATING DISEASE” (Fimbrion Therapeutics, Inc., priority 2016, published 2020).

Target: T1, FimH (Escherichia coli, UniProt Q1R2J4)
T1 construct: performed with UTI89 bacteria and guinea pig red blood cells; endogenous in cells; host or cells: UTI89 bacteria (whole cells, type 1 piliated)
Assay type: cell-based
Conditions: concentration reducing bacterial agglutination of guinea pig red blood cells by greater than 90%; UTI89 bacteria
Procedure: The hemagglutination inhibition (HAI) assay was performed with UTI89 bacteria and guinea pig red blood cells, as previously described (S. J. Hultgren, W. R. Schwan, A. J. Schaeffer, J. L. Duncan Infect. Immun. 1986, 54, 613-620).

| SMILES | HAI titer EC>90 |
| --- | --- |
| Cc1cc(-c2ccc3ncccc3c2)ccc1[C@@H](O)[C@H]1O[C@H](CO)[C@@H](O)[C@H](O)[C@@H]1O [Example 14, (2R,3S,4S,5S,6R)-2-((R)-Hydroxy (2-methyl-4-(quinolin-6-yl)phenyl)methyl)-6-(hydroxymethyl)-tetrahydro-2H-pyran-3,4,5-triol] | 0.032 µM |
| Cc1cc(-n2cc(-c3ccccc3)nn2)ccc1[C@@H](O)[C@H]1O[C@H](CO)[C@@H](O)[C@H](O)[C@@H]1O [Example 48, (2R,3S,4S,5S,6R)-2-((R)-hydroxy(2-methyl-4-(4-phenyl-1H-1,2,3-triazol-1-yl)phenyl)methyl)-6-(hydroxymethyl)tetrahydro-2H-pyran-3,4,5-triol] | 0.016 µM |
| Cc1cc(-c2ccnc(N3CCOCC3)c2)ccc1[C@@H](O)[C@H]1O[C@H](CO)[C@@H](O)[C@H](O)[C@@H]1O [Example 25, (2R,3S,4S,5S,6R)-2-((R)-Hydroxy (2-methyl-4-(2-morpholinopyridin-4-yl)phenyl)methyl)-6-(hydroxymethyl)-tetrahydro-2H-pyran-3,4,5-triol] | 0.006 µM |
| Cc1cc(-c2ccc3ccn(C(C)C)c(=O)c3c2)ccc1[C@@H](O)[C@H]1O[C@H](CO)[C@@H](O)[C@H](O)[C@@H]1O [Example 31, 7-(4-((R)-Hydroxy ((2R,3S,4S,5S,6R)-3,4,5-trihydroxy-6-(hydroxymethyl)-tetrahydro-2H-pyran-2-yl)methyl)-3-methylphenyl)-2-isopropylisoquinolin-1 (2H)-one] | 0.006 µM |
| CNC(=O)c1cncc(-c2ccc([C@@H](O)[C@H]3O[C@H](CO)[C@@H](O)[C@H](O)[C@@H]3O)c(C)c2)c1 [Example 35, 5-(4-((R)-Hydroxy ((2R,3S,4S,5S,6R)-3,4,5-trihydroxy-6-(hydroxymethyl)-tetrahydro-2H-pyran-2-yl)methyl)-3-methylphenyl)-N-methylnicotinamide] | 0.01 µM |
| Cc1cc(-c2ccc3c(c2)C(=O)N(C)CC3)ccc1[C@@H](O)[C@H]1O[C@H](CO)[C@@H](O)[C@H](O)[C@@H]1O [Example 12, 7-(4-((R)-Hydroxy ((2R,3S,4S,5S,6R)-3,4,5-trihydroxy-6-(hydroxymethyl)-tetrahydro-2H-pyran-2-yl)methyl)-3-methylphenyl)-2-methyl-3,4-dihydroisoquinolin-1 (2H)-one] | 0.008 µM |
| Cc1cc(-c2cccc3c(N)n[nH]c23)ccc1[C@@H](O)[C@H]1O[C@H](CO)[C@@H](O)[C@H](O)[C@@H]1O [Example 18, (2R,3S,4S,5S,6R)-2-((R)-(4-(3-Amino-1H-indazol-7-yl)-2-methylphenyl) (hydroxy)methyl)-6-(hydroxymethyl)-tetrahydro-2H-pyran-3,4,5-triol] | 0.006 µM |
| Cc1cc(-c2ccnc(Cl)c2)ccc1[C@@H](O)[C@H]1O[C@H](CO)[C@@H](O)[C@H](O)[C@@H]1O [Example 22, (2R,3S,4S,5S,6R)-2-((R)-(4-(2-Chloropyridin-4-yl)-2-methylphenyl) (hydroxy)methyl)-6-(hydroxymethyl)-tetrahydro-2H-pyran-3,4,5-triol] | 0.027 µM |
| Cc1cc(-c2ccnc(N)c2)ccc1[C@@H](O)[C@H]1O[C@H](CO)[C@@H](O)[C@H](O)[C@@H]1O [Example 26, (2R,3S,4S,5S,6R)-2-((R)-(4-(2-Aminopyridin-4-yl)-2-methylphenyl) (hydroxy)methyl)-6-(hydroxymethyl)-tetrahydro-2H-pyran-3,4,5-triol] | 0.039 µM |
| CNC(=O)c1cccc(-c2ccc([C@@H](OC)[C@H]3O[C@H](CO)[C@@H](O)[C@H](O)[C@@H]3O)c(C)c2)c1 [Example 7, 4′-((R)-methoxy((2S,3S,4S,5S,6R)-3,4,5-trihydroxy-6-(hydroxymethyl)tetrahydro-2H-pyran-2-yl)methyl)-N,3′-dimethylbiphenyl-3-carboxamide] | 2 µM |
